According to patent publication US6534313B1, “Genetically modified plants having modulated brassinosteroid signaling” (The Salk Institute for Biological Studies, priority 1999, dated 2003):

Assays:
[1] = tested on: bas1-DphyB-4 and phyB-4 seedlings; test: Feeding experiment: metabolism of deuterium-labeled and non-labeled brassinolide in aseptically grown seedlings, GC-MS; format: in vivo; details: Arabidopsis seedlings, one day, GC-MS comparison with authentic sample
Source text: To test the hypothesis that overexpression of bas1 gene product results in hydroxylation of brassinolide, metabolism of deuterium-labeled and non-labeled brassinolide was examined using aseptically grown seedlings. As possible hydroxylated metabolites of brassinolide, 14-hydroxybrassinolide, 20-hydroxybrassinolide, 25-hydroxybrassinolide, 26-hydroxybrassinolide, and 28-hydroxybrassinolide were chemically synthesized. The possible hydroxylated brassinolide fractions from the feeding experiments were analyzed by gas chromatograph-mass spectrometry (GC-MS) after conversion to methaneboronate-trimethylsilyl derivatives.
In preliminary experiments, bas1-DphyB-4 and phyB-4 seedlings were fed ^2H6-labeled brassinolide (d6-BL) and incubated for one day. […] When BL was fed to the seedlings, 26-OHBL was detected as a metabolite of BL. […] When d6-BL was fed to the seedlings, fragment ions such as m/z 625, 583 and 570 were detected. […]
For brassinosteroid measurements, plants were grown on soil (Neff and Chory, supra) in short day conditions (8 hours of light, […] of dark) for five weeks before rosettes were harvested in liquid nitrogen. […] Brassinosteroids were analyzed according to the methods described by (S. Fujioka et al., Plant Cell 9:1951-1962, 1997). […]
Each fraction was subjected to GC-MS analysis after derivatization. 26-OHBL was detected from retention time of 2-3 min. […]

Arabidopsis seedlings = test: Brassinolide dose response of seedling hypocotyls and cotyledon petioles; format: in vivo
Source text: FIGS. 3A-C are graphs showing the dose response of hypocotyls of seedlings to brassinosteroid as measured after 6 days on varying levels of brassinolide. […] Col-O=closed circles; phyB-4=open diamonds; bas1-DphyB-4=open circles; BAS1′ antisense line=closed diamonds; and det2-1=open triangles. Error bars represent one standard error from the mean. When no error bars are visible, they are smaller than the symbols.
By contrast, a brassinosteroid biosynthesis mutant det2-1 produced petioles that were shorter than the wild type in the light, while the petioles of phyB-4 mutants were longer than the wild type in the light. In both cases, these phenotypes were rescued by exposure to increasing amounts of brassinosteroids.
(CIDtech Research Inc., Mississauga, Ontario, Canada) 2 mM Brassinolide stock was made by dissolving in 95% (v/v) EtOH and stored at −20° C. The 1 μM solution was made by a 1:2000 fold dilution of the 2 mM stock in standard growth media. All other concentrations including the negative control contained the same amount of EtOH. Light conditions for fluence responses in red and blue light and seedling measurements were performed as described in Neff and Chory, supra. An E30LED growth chamber (Percival Scientific, Boone, IA) supplied far-red light. Far-red fluences were measured with a portable spectroradiometer (model LI-1800, Li-Cor, Inc., Lincoln, Nebr.).

| Compound | metabolite detected after feeding to seedlings [1] | hypocotyl hyper-responsivity to brassinolide (Arabidopsis seedlings; BAS1 antisense lines, grown in the dark, 6 days) | hypocotyl response to brassinolide (Arabidopsis seedlings; BAS1 antisense lines, grown in the light, 6 days) | rosette response to brassinolide (Arabidopsis seedlings; plants overexpressing bas1 (bas1-DphyB-4), white light) |
| --- | --- | --- | --- | --- |
| 2H6-labeled brassinolide [d6-BL] | d6-26-OHBL | – | – | – |
| CC(C)[C@H](C)[C@@H](O)[C@H](O)[C@@H](C)[C@H]1CC[C@H]2[C@@H]3COC(=O)[C@H]4C[C@H](O)[C@H](O)C[C@]4(C)[C@H]3CC[C@]12C [BL, brassinolide] | 26-OHBL | not | hyper-responsivity | insensitive |
